Some results are limits rather than exact numbers.

This assay deals with T1, Q46 protein aggregates (Homo sapiens, UniProt P42858).
T1 construct: fused on or other part: An N-terminal GST tag, cleaved off with thrombin before the assay to trigger aggregation
T1 sequence (P42858 with tags, fused parts or gaps with the stated changes, form open): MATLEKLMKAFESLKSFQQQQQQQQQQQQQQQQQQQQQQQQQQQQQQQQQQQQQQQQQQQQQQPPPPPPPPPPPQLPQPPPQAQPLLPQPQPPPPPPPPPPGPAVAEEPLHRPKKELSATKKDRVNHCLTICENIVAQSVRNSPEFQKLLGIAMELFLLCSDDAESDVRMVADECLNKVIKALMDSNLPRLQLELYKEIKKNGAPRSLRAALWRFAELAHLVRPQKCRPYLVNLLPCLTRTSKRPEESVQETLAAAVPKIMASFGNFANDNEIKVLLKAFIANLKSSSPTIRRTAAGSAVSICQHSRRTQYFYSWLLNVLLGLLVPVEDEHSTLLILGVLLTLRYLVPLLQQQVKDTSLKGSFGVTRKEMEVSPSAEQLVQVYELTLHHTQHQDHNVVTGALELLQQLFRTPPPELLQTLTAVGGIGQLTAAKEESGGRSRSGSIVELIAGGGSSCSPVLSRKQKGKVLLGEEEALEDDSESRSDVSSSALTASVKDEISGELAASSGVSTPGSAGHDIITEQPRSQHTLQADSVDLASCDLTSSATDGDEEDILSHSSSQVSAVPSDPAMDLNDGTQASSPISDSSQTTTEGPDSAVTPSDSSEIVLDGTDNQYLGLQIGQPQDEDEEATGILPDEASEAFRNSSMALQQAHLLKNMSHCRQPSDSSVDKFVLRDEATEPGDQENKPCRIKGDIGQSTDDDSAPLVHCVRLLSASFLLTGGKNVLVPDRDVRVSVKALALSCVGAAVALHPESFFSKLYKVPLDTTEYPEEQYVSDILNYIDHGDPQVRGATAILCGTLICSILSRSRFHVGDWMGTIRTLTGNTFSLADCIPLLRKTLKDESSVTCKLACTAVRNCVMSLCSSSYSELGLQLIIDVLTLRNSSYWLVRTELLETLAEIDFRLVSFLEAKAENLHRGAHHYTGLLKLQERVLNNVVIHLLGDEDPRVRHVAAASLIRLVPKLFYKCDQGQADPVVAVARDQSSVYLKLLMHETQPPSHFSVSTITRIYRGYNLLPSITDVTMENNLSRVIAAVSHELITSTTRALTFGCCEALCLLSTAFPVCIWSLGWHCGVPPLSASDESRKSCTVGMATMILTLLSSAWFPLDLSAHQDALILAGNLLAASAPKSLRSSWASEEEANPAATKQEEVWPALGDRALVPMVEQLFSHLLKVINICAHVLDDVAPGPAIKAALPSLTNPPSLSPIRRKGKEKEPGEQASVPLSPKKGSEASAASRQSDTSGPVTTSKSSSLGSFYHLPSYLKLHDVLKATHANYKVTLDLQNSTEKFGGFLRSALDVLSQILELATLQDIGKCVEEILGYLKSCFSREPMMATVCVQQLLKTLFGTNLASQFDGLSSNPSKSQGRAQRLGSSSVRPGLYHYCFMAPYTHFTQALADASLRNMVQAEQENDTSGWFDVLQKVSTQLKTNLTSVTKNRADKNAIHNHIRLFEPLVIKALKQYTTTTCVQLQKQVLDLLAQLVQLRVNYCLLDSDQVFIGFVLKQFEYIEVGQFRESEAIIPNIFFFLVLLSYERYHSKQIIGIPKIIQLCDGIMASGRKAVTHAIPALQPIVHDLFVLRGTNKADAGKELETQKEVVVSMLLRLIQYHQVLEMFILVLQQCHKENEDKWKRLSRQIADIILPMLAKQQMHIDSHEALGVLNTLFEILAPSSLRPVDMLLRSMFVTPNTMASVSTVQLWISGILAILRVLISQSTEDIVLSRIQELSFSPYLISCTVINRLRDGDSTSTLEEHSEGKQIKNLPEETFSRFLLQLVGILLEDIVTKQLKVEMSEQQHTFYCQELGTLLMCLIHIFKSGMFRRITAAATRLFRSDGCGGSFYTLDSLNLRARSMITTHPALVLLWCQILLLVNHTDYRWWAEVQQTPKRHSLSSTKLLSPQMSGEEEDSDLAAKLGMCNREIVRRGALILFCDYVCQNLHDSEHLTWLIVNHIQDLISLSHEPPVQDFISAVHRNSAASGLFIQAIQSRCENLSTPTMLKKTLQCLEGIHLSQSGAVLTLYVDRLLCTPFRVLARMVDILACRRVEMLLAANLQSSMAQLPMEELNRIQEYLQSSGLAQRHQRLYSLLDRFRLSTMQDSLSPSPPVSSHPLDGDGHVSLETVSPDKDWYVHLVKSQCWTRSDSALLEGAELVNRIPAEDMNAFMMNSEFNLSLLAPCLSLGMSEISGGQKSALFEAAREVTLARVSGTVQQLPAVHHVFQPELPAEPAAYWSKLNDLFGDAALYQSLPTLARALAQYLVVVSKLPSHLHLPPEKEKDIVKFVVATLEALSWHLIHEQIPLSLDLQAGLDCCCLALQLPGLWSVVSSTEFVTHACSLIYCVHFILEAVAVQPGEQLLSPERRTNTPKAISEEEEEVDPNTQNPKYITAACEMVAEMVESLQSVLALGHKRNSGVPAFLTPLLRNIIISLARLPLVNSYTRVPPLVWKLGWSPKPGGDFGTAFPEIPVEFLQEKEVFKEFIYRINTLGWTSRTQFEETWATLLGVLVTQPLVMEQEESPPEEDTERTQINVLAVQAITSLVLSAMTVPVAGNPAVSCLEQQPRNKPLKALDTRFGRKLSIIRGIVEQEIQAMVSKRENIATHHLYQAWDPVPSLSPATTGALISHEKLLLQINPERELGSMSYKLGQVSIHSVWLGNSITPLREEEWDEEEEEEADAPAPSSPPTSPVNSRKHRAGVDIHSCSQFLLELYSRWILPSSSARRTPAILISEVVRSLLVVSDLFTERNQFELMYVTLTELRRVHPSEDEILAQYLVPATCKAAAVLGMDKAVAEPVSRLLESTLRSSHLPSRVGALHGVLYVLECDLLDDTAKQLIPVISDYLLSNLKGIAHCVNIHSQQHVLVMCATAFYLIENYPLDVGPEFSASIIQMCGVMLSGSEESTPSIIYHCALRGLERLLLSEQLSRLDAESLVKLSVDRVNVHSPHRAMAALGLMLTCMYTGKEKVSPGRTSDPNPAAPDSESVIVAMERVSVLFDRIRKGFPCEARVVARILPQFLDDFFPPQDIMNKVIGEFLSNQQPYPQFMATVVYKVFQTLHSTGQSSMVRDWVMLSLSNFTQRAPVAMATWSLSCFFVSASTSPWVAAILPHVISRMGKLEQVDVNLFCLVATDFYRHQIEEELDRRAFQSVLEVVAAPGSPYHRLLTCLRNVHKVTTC
Description: Q46 Radioligand Binding Assay (RBA), displacement of [^3H3]MK-3328. Conditions: 10 nM [^3H3]MK-3328, 5 μM Q46 protein aggregates. As for the experimental part:
For radioligand binding assays (RBA) GST-Q46 protein was generated based on a previous publication (Scherzinger et al. Cell, Vol. 90, 549-558, Aug. 8, 1997). For experiments 33 μM GST-Q46 was incubated with 150 μg/mL thrombin in assay buffer (150 mM NaCl, 50 mM Tris pH 8.0) and 2 mM CaCl2 for 16 hours at 37° C. Aggregated Q46 was pelleted by centrifugation for 5 minutes at 13,000 rpm in a bench top centrifuge and re-dissolved in the same volume of assay buffer. Test compounds were prepared by titration in DMSO at 11 concentrations from 33 μM to 1 nM. For the RBA, Q46 protein aggregates and test compounds were pre-incubated in assay buffer for 20 minutes at room temperature, in 140 μL/well in a 96-well plate (pp, round bottom). Then, ligand was added in 10 μL/well and incubated for 60 minutes at 37° C. Final assay concentrations were 1 μM to 30 pM test compound, 5 μM Q46 protein (equivalent monomer concentration) and 10 nM ligand [^3H3]MK-3328 (Harrision et al., ACS Med. Chem. Lett., 2 (2011), pp 498-502). Samples were transferred onto GF/B filter plates and washed 2× with 200 μL PBS using a Filtermate Harvester. After drying filter plates for 1 hour at 37° C., the back of the plates was sealed with foil and 30 μl/well scintillation fluid (Packard MicroScint 40) was added, incubated for incubated for 15 minutes in the dark and counted in a TopCount reader. For analysis, replicate data from independent assay plates were normalized towards 0% and 100% inhibition using control wells of vehicle (0% inhibition) and 3 μM unlabelled MK-3328 (100% inhibition). IC50 values were determined with a sigmoidal inhibition model with four variables (top, bottom, slope, IC50) in a global fit using the normalized replicate data.
Consider `COc1ccc2c(c1)sc1nc(C(=O)Nc3ccc(=O)[nH]n3)cn12` [10-methoxy-N-(6-oxo-1,6-dihydropyridazin-3-yl)-7-thia-2,5-diazatricyclo[6.4.0.0^2,6]dodeca-1(12),3,5,8,10-pentaene-4-carboxamide], for which the IC50 (as a rule, the concentration needed to halve the response being measured) was less than 0.1 µM.
Then `COc1ccc2c(c1)sc1nc(C(=O)Nc3ccc(=O)[nH]c3)cn12` [10-methoxy-N-(6-oxo-1,6-dihydropyridin-3-yl)-7-thia-2,5-diazatricyclo[6.4.0.0^2,6]dodeca-1(12),3,5,8,10-pentaene-4-carboxamide], with less than 0.1 µM; and `COc1ccc2c(c1)sc1nc(C(=O)Nc3cnccn3)cn12` [10-methoxy-N-(pyrazin-2-yl)-7-thia-2,5-diazatricyclo[6.4.0.0^2,6]dodeca-1(12),3,5,8,10-pentaene-4-carboxamide], with less than 0.1 µM; and `COc1ccc2c(n1)sc1nc(C(=O)Nc3cccnc3)cn12` [10-methoxy-N-(pyridin-3-yl)-7-thia-2,5,9-triazatricyclo[6.4.0.0^2,6]dodeca-1(12),3,5,8,10-pentaene-4-carboxamide], with less than 0.1 µM.
To `COc1ccc2c(c1)sc1nc(C(=O)Nc3cccnc3)cn12` [10-methoxy-N-(pyridin-3-yl)-7-thia-2,5-diazatricyclo[6.4.0.0^2,6]dodeca-1(12),3,5,8,10-pentaene-4-carboxamide] belongs less than 0.1 µM.
For the compound `COc1ccc2c(c1)sc1nc(C(=O)NCc3cccnc3)cn12` [10-methoxy-N-(pyridin-3-ylmethyl)-7-thia-2,5-diazatricyclo[6.4.0.0^2,6]dodeca-1(12),3,5,8,10-pentaene-4-carboxamide], the IC50 was greater than 0.5 µM.
Then `COc1ccc2c(c1)sc1nc(C(=O)Nc3ccncc3)cn12` [10-methoxy-N-(pyridin-4-yl)-7-thia-2,5-diazatricyclo[6.4.0.0^2,6]dodeca-1(12),3,5,8,10-pentaene-4-carboxamide], with less than 0.1 µM.
Then `COc1ccc2c(c1)sc1nc(C(=O)Nc3cncnc3)cn12` [10-methoxy-N-(pyrimidin-5-yl)-7-thia-2,5-diazatricyclo[6.4.0.0^2,6]dodeca-1(12),3,5,8,10-pentaene-4-carboxamide], with less than 0.1 µM; and `COc1ccc2c(c1)sc1nc(C(=O)Nc3ccc(-c4cccnc4)cn3)cn12` [10-methoxy-N-[5-(pyridin-3-yl)pyridin-2-yl]-7-thia-2,5-diazatricyclo[6.4.0.0^2,6]dodeca-1(12),3,5,8,10-pentaene-4-carboxamide], with less than 0.1 µM.
To `CNC(=O)c1ccc(NC(=O)c2cn3c(n2)sc2cc(OC)ccc23)cn1` [10-methoxy-N-[6-(methylcarbamoyl)pyridin-3-yl]-7-thia-2,5-diazatricyclo[6.4.0.0^2,6]dodeca-1(12),3,5,8,10-pentaene-4-carboxamide] belongs less than 0.1 µM; to `COc1ccc2c(c1)sc1nc(C(=O)N(C)c3cccnc3)cn12` [10-methoxy-N-methyl-N-(pyridin-3-yl)-7-thia-2,5-diazatricyclo[6.4.0.0^2,6]dodeca-1(12),3,5,8,10-pentaene-4-carboxamide], 0.1 to 0.5 µM; to `CNCc1cccc(NC(=O)c2cn3c(n2)sc2cc(OC)ccc23)c1` [10-methoxy-N-{3-[(methylamino)methyl]phenyl}-7-thia-2,5-diazatricyclo[6.4.0.0^2,6]dodeca-1(8),3,5,9,11-pentaene-4-carboxamide], less than 0.1 µM.
Take `COc1cncc(NC(=O)c2cn3c(n2)sc2ncc(Br)cc23)c1` [11-bromo-N-(5-methoxypyridin-3-yl)-7-thia-2,5,9-triazatricyclo[6.4.0.0^2,6]dodeca-1(12),3,5,8,10-pentaene-4-carboxamide]: the IC50 was less than 0.1 µM.
To `COc1cnc2sc3nc(C(=O)Nc4ccc(=O)n(C)n4)cn3c2c1` [11-methoxy-N-(1-methyl-6-oxo-1,6-dihydropyridazin-3-yl)-7-thia-2,5,9-triazatricyclo[6.4.0.0^2,6]dodeca-1(12),3,5,8,10-pentaene-4-carboxamide] belongs less than 0.1 µM.

These data come from patent US10765764B2, “Probes for imaging huntingtin protein” (CHDI Foundation, Inc., priority 2015, dated 2020).
